Test systems include 786-0 renal; HOP-62 NSCLC; KM12 colon; NCI/ADR-RES ovarian; RPMI-8226 leukemia; SK-MEL-28 melanoma; SNB-19 CNS; UO-31 renal.
What all share (assay): NCI tumour cell line growth inhibition, 48 h

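Interpolation was linear, between the two tested concentrations surrounding the appropriate level; five concentrations were tested over 48 hours in 96-well plates. GI50 is the concentration that inhibits growth by half. TGI is the concentration that stops growth completely.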

On to `O=C(O)/C(Cc1ccnc2ccccc12)=N\O`, for which the TGI in the experiment on 786-0 renal, with HOP-62 NSCLC, in the experiment on KM12 colon, with NCI/ADR-RES ovarian, in the experiment on RPMI-8226 leukemia and in the experiment on SK-MEL-28 melanoma was more than 100 µM in each case. Also, the TGI with SNB-19 CNS and in the experiment on UO-31 renal was more than 100 µM throughout.

Consider `COc1cc(C2C3=C(COC3=O)N(CCO)c3cc4c(cc32)OCCO4)cc(OC)c1OC` (stereo not drawn), for which the GI50 in the experiment with 786-0 renal is 0.369 µM; with HOP-62 NSCLC it was 0.465 µM; in the experiment on KM12 colon, 0.187 µM; in the experiment with NCI/ADR-RES ovarian, 6.75 µM; in the experiment on RPMI-8226 leukemia, 0.149 µM; in the experiment with SK-MEL-28 melanoma, more than 50 µM. Moreover, the GI50 in the experiment on SNB-19 CNS is 0.717 µM; in the experiment on UO-31 renal it was 1.82 µM. Further, the TGI in the experiment with 786-0 renal was more than 50 µM; in the experiment with HOP-62 NSCLC, more than 50 µM; with KM12 colon it was 0.838 µM; in the experiment on NCI/ADR-RES ovarian it was more than 40.7 µM; with SK-MEL-28 melanoma, more than 50 µM; in the experiment with SNB-19 CNS, more than 50 µM. This compound gave a TGI in the experiment on UO-31 renal of more than 50 µM.

Take `O=C(NNc1ccc(Cl)cc1)C1CCC(CNS(=O)(=O)c2ccccc2Cl)CC1` (stereo not drawn): the GI50 is 13.7 µM with 786-0 renal; 4.37 µM with KM12 colon; 15.5 µM in the experiment with NCI/ADR-RES ovarian; 4.91 µM with RPMI-8226 leukemia; 56.2 µM in the experiment on UO-31 renal. Also, the TGI in the experiment with 786-0 renal was 34 µM; in the experiment with KM12 colon, 99.4 µM; with NCI/ADR-RES ovarian, 50.7 µM; in the experiment with RPMI-8226 leukemia, 21.9 µM; in the experiment with UO-31 renal, more than 100 µM.

`COc1ccc(/C=C/c2c(C(=O)/C=C/c3ccc(C(F)(F)F)cc3)c(C)nc3ccccc23)cc1`: the GI50 is 1.61 µM with 786-0 renal; 2.12 µM with KM12 colon; 2.36 µM in the experiment with NCI/ADR-RES ovarian; 0.807 µM with RPMI-8226 leukemia; 1.82 µM in the experiment with SK-MEL-28 melanoma; 1.62 µM in the experiment with SNB-19 CNS. In the experiment with UO-31 renal, the GI50 is 1.11 µM. In addition, the TGI in the experiment with 786-0 renal is 3.02 µM; in the experiment with KM12 colon it was 5.09 µM; in the experiment on NCI/ADR-RES ovarian it was 7.46 µM; in the experiment on RPMI-8226 leukemia it was 7.65 µM; with SK-MEL-28 melanoma, 3.47 µM; in the experiment with SNB-19 CNS it was 3.05 µM. In the experiment on UO-31 renal, this compound gave a TGI of 2.33 µM.

For `Clc1ccc(-c2c3ccc(=[N+]4CCCCC4)cc-3oc3cc(N4CCCCC4)ccc23)cc1`, the GI50 in the experiment on 786-0 renal was 0.103 µM; in the experiment on HOP-62 NSCLC it was 0.0635 µM; with SNB-19 CNS, 0.133 µM. Besides, the figures for the TGI with 786-0 renal, with HOP-62 NSCLC and with SNB-19 CNS were 0.226 µM, 0.202 µM and 0.313 µM, respectively.

As to `C1CCCCc2nc3c(nc2CCC1)c1nc2c(nc1c1nc4c(nc31)CCCCCCCC4)CCCCCCCC2`, the TGI in the experiment with 786-0 renal, in the experiment with HOP-62 NSCLC, in the experiment on KM12 colon, in the experiment on SK-MEL-28 melanoma, in the experiment with SNB-19 CNS and in the experiment on UO-31 renal was more than 100 µM in each case.

As for `CC(=O)OC12C=C(C)C(C(C)C1)C1C(=O)N(CCN3CCCCC3)C(=O)C12` (stereo not drawn), the GI50 with 786-0 renal, in the experiment with HOP-62 NSCLC, in the experiment with KM12 colon, with NCI/ADR-RES ovarian, in the experiment on SNB-19 CNS and in the experiment with UO-31 renal was more than 50 µM each time. Besides, the TGI in the experiment on 786-0 renal, with HOP-62 NSCLC, in the experiment on KM12 colon, in the experiment on NCI/ADR-RES ovarian, in the experiment on SNB-19 CNS and in the experiment with UO-31 renal was more than 50 µM each time.

With `CCCOC(=O)c1c(C)n(C)c2scc[n+]12`, the GI50 in the experiment with 786-0 renal is 80.1 µM; with HOP-62 NSCLC, 44.6 µM; in the experiment on KM12 colon, 44.5 µM; with NCI/ADR-RES ovarian, more than 100 µM; in the experiment on SK-MEL-28 melanoma, more than 100 µM; in the experiment with SNB-19 CNS it was 36.3 µM. In addition, the GI50 with UO-31 renal is more than 100 µM. The TGI in the experiment with 786-0 renal, in the experiment with HOP-62 NSCLC, with KM12 colon, in the experiment with NCI/ADR-RES ovarian, in the experiment with SK-MEL-28 melanoma and with SNB-19 CNS was more than 100 µM each time. The compound further returned a TGI in the experiment on UO-31 renal of more than 100 µM.

Turning to `O=C1CSC(c2ccccc2Cl)N1c1nnc(Cn2cnnc2)o1` (stereo not drawn), the GI50 was 13.8 µM in the experiment with 786-0 renal; 17.6 µM in the experiment on HOP-62 NSCLC; 5.2 µM with KM12 colon; 6.64 µM in the experiment with NCI/ADR-RES ovarian; 5.77 µM in the experiment with RPMI-8226 leukemia; 12.3 µM with SK-MEL-28 melanoma. In addition, in the experiment on UO-31 renal, the GI50 was 30.8 µM. Also, the TGI in the experiment with 786-0 renal was found to be 33.4 µM; in the experiment with HOP-62 NSCLC, 44.6 µM; in the experiment with KM12 colon, 20.3 µM; in the experiment on NCI/ADR-RES ovarian, 83.4 µM; in the experiment with RPMI-8226 leukemia, 95.5 µM; with SK-MEL-28 melanoma, 45.8 µM. Also, the TGI in the experiment on UO-31 renal is more than 100 µM.

In the case of `O=C(Nc1ccccc1I(=O)=O)C1CCCCC1`, the GI50 with 786-0 renal, in the experiment with KM12 colon, in the experiment with NCI/ADR-RES ovarian, in the experiment with RPMI-8226 leukemia, in the experiment on SK-MEL-28 melanoma and in the experiment with SNB-19 CNS was more than 100 µM throughout. Besides, the GI50 in the experiment on UO-31 renal is more than 100 µM. Besides, the TGI in the experiment with 786-0 renal, in the experiment on KM12 colon, in the experiment with NCI/ADR-RES ovarian, with RPMI-8226 leukemia, in the experiment with SK-MEL-28 melanoma and with SNB-19 CNS was more than 100 µM throughout. The same compound showed a TGI with UO-31 renal of more than 100 µM.

Values taken from PubChem BioAssay (NCI).
